Data published in patent US20120225093A1, “Abrogating HIV-1 Infection via Drug-Induced Reactivation of Apoptosis” (UNIVERSITY OF MEDICINE AND DENTISTRY OF NEW JERSEY, priority 2010, published 2012).

What was measured:
[1] = system: HIV-1; test: Acute PBMC infection model: p24 and HIV-1 RNA in supernatant; type: cell-based; details: for p24 in culture (virus production, p24 capture assay): HIV-infected PBMCs co-cultured with uninfected PBMCs, CPX 30 μM, DEF 250 μM, P2 30 μM added at 48 hr, followed to 144 hr; for HIV-1 RNA production / p24 production: isolate #990,135, compound added at 48 hr, 30 or 60 μM
Experimental: Using an institutional review board (IRB)-approved protocol, PBMCs were isolated from the blood of healthy donors and stimulated overnight with phytohemagglutinin (PHA) and human IL-2. Stimulated cells were pelleted and resuspended for culture at a final concentration of 0.5×10^6 cells/ml in PHA-free RPMI 1640 medium containing 10% fetal calf serum (v/v), 100 units/ml penicillin G, 100 μg/ml streptomycin, 2 mM […], and 3.5 ng/ml human IL-2 (Medium B). Cultures were incubated at 37° C., 5% CO2, and 95% humidity.
Using an IRB-approved protocol, two donors were recruited to generate clinical viral isolates. One (#990,135) was highly immunocompromised despite on-going combination antiretroviral therapy (cART) (CD4 count <5%; HIV RNA in plasma at log10 5.5 copies/ml). The second (#990,010) was moderately to severely immunocompromised on cART (CD4 count 14-26%; HIV RNA in plasma at log10 3.8-5.0 copies/ml). For infection, 5×10^6 uninfected stimulated PBMCs were co-cultured with 10×10^6 PBMCs from one of the HIV-infected donors in Medium B. On day 3, half of the supernatant was removed and replenished with an equal volume of fresh Medium B. On day 7, the medium was likewise replenished and 7.5×10^6 stimulated uninfected PBMCs were added. On days 10, 17, and 24, half of the supernatant was replenished. On days 14, 21, and 28, stimulated uninfected PBMCs were added. Cells were harvested when p24 reached 250 pg/ml, cryopreserved in freezing medium (90% fetal calf serum, 10% dimethyl sulfoxide), and stored in liquid nitrogen as infected PBMC stock. Cell-free supernatants were stored at −80° C.
Uninfected PBMCs were co-incubated with infected PBMC stock in 24-well microplates at 2 ml/well Medium B, at a 10:1 ratio of uninfected-to-infected cells, and a total cell number of 1×10^6. Cultures were maintained and assayed for 6 consecutive days. […] Leaving the cell layer undisturbed, half the medium in each well was replenished every day, with concurrent adjustment of compound concentration. On each day during the 6-day experiments, a set of wells was harvested: the cells were processed for determination of viability and apoptosis, and the cell-free supernatants were stored at −80° C. for p24 and viral RNA measurements. Experiments were performed at least in duplicate and repeated at least twice.
p24 core antigen in the supernatant was quantified by ELISA (Retrotek HIV-1 p24™; ZeptoMetrix Corp.; Buffalo, N.Y.). HIV-1 RNA copy number in the supernatant was determined with a PCR-based and FDA-approved assay (Amplicor HIV-1 Monitor™; Roche Diagnostics Corp.; Indianapolis, Ind.). IFN-γ and IL-10 in the supernatant were determined by cytometric bead array (Human Th1/Th2 Cytokine Kit II™; BD Biosciences Pharmingen, San Jose, Calif.).
To examine the effect of CPX and DEF on HIV-1 propagation, uninfected PBMCs from healthy donors were co-cultured with HIV-infected PBMCs and virus production was monitored by the p24 capture assay. In untreated cultures, p24 was first detected at 96 hr and increased up to 144 hr (FIG. 1C; Control). […] The profound inhibition is due, at least in part, to activation of apoptosis at later stages of infection. These concentrations are within the clinically relevant range and sufficient to block DOHH activity and eIF5A modification (see below).
To examine the antiretroviral action of CPX in a clinic-derived model, PBMCs infected with patient isolates of HIV-1 were used. Naïve freshly isolated PBMCs from a single donor were infected by co-cultivation with HIV-infected, HLA-nonidentical PBMCs at an initial uninfected/infected cell ratio of 10:1. CPX was added and cells were maintained and monitored for six days. Half of each culture supernatant was replenished daily with CPX-containing or CPX-free medium as appropriate. […]

[2] = system: HIV-1 promoter; test: Dual luciferase assay, HIV-1 molecular clone pNL4-3-LucE- and derived constructs in 293T cells; type: cell-based; details: for inhibition of expression from construct VI: 3′-LTR replaced by SV40 poly(A) signal; for dose dependence of repression of expression from pNL4-3-LucE- / repression of luciferase expression (FF:Ren) from pNL4-3-LucE-: 12 hr post-transfection; for repression of luciferase expression (FF:Ren) from pNL4-3-LucE-: CPX 30 μM, DEF 250 μM, P2 30 μM; for inhibition of FF expression from construct V: all open reading frames deleted except luciferase; for inhibition of FF expression from constructs III and IV: within 12 hr, Tat-deficient constructs complemented with Tat vector
Experimental: Plasmids were introduced into 2×10^5 293T cells by transfection using Lipofectamine 2000 (Invitrogen) according to the manufacturer's instructions. Compounds (such as CPX or DEF) were added simultaneously. Cells were harvested at 12 hr post-transfection, washed with PBS, lysed in 0.15 ml of 1× passive lysis buffer (Promega), and assayed for luciferase activity using the Promega dual luciferase reporter system according to the manufacturer's instructions. Jurkat cells (1×10^6 cells) were transfected using FuGENE 6 (Roche) according to the manufacturer's instructions and assayed in a similar fashion after pelleting.
293T cells (10^5 cells/well of 12-well microplates) were seeded and transfected 20 hr later with a firefly luciferase (Luc)-expressing reporter plasmid and corresponding Renilla luciferase (Ren)-expressing reference plasmid using TransFectin™ (Bio-Rad, Hercules, Calif.). The bioavailable intracellular iron concentration was monitored using plasmids obtained from B. Galy and M. W. Hentze (EMBL, Heidelberg). Plasmid pcFIF-Luc contains the mouse ferritin H 5′-UTR with an iron response element (IRE) controlling Luc; pcFIRo-Ren is a similar construct expressing a mutated non-functional IRE fused to Ren. The activity of the HIV-1 promoter was monitored using the pNL4-3-Luc E molecular clone (Chen et al. (1994) J Virol 68: 654-660.), based on the recombinant infectious proviral clone that contains DNA from HIV isolates NY5 (5′ half) and IIIB (3′ half). This plasmid, obtained from D. Baltimore (Caltech, Pasadena), contains the Luc gene in place of 102 nucleotides from nef and 6 nucleotides from env. pCMV-Ren (Promega, Madison, Wis.) was used as reference for pNL4-3-Luc E. Compounds were added at the time of transfection. Cells were harvested 12 hr later, washed with phosphate-buffered saline, and lysed for the dual luciferase assay (Dual Luciferase™ Reporter Assay System; Promega, Madison, Wis.). Luc data were normalized to the Ren internal controls (Hogue et al. (2009) Retrovirology 6: 90.).
293T cells were selected as a model system to explore the relationship between the drugs, eIF5A and HIV gene expression. These cells efficiently transcribe HIV-1 genes from molecular clones as well as subviral constructs, allowing for early detection of changes in HIV gene expression. To establish the system, assays were carried out to examine the effect of CPX and DEF on the expression of firefly luciferase (FF) from the HIV-1 molecular clone, pNL4-3-LucE-, engineered to carry the FF gene in place of the viral nef gene. The molecular clone was transfected into 293T cells together with the pCMV-Ren vector that expresses Renilla luciferase (Ren) from the cytomegalovirus (CMV) immediate early promoter as a control for transfection efficiency and non-specific effects of the compounds. Dual luciferase assays were conducted at 12 hr post-transfection and results are expressed as relative luciferase activity (FF:Ren). […] Assays therefore were carried out to characterize the action of CPX and DEF on eIF5A and HIV gene expression in 293T cells during the first 12 to 24 hr of drug treatment.

[3] = isolate #990,010, CPX 30 μM added 12 hr after inoculation, six days

Compound	p24 in culture (virus production, p24 capture assay) [1]	HIV-1 p24 [1, 3]	extracellular HIV-1 RNA [1, 3]	HIV-1 RNA production [1]	p24 production [1]	inhibition of expression from construct VI [2] [%]	dose dependence of repression of expression from pNL4-3-LucE- [2]	repression of luciferase expression (FF:Ren) from pNL4-3-LucE- ([2]; DFOX 15 μM)	inhibition of FF expression from construct V [2] [%]	inhibition of FF expression from constructs III and IV [2] [%]	decrease of HIV-encoded luciferase expression ([2]; run parallel to IRE reporter (FIG. 11B), DFOX 15 μM)
Cc1cc(C2CCCCC2)n(O)c(=O)c1 [CPX, 6-cyclohexyl-1-hydroxy-4-methylpyridin-2[1H]-one]	reduced p24 to baseline levels	remained undetectable	did not increase at any time over the initial infectious dose	inhibited the production of HIV-1 RNA	completely inhibited p24 production	~50	repressed expression from the HIV-1 molecular clone in a dose dependent fashion	~50%	~50	~50	–
Cc1c(O)c(=O)ccn1C [DEF, 3-hydroxy-1,2-dimethylpyridin-4(1H)-one]	reduced p24 to baseline levels	–	–	–	–	~50	repressed expression from the HIV-1 molecular clone in a dose dependent fashion	~50%	~50	~50	–
Cc1ccn(O)c(=O)c1 [Agent P2, 1-hydroxy-4-methylpyridin-2[1H]-one]	did not impede p24 production	–	–	did not curtail the accumulation of p24 or HIV-1 RNA	did not curtail the accumulation of p24 or HIV-1 RNA	–	–	ineffective	–	–	no effect on either IRE-dependent or HIV-encoded luciferase expression
